From patent US20250109118A1, “HETEROCYCLIC COMPOUNDS AS SHP2 INHIBITORS, COMPOSITIONS COMPRISING THE HETEROCYCLIC COMPOUND, AND METHODS OF USE THEREOF” (JS INNOMED HOLDINGS LTD., priority 2021, published 2025)

Experiments:
[1] = target: T1, SHP2 (PTPN11/SHP2-FL) (Homo sapiens, UniProt Q06124); test: SHP2 biochemical assay (DiFMUP prompt fluorescence); conditions: 0.5 nM SHP2, 0.35 μM activating peptide, DiFMUP 100 μM; read-out: SHP2 bichemical activity (IC50)
T1 construct: SHP2 (PTPN11/SHP2-FL, RBC produced, no cat #); purchased RBC no cat #
T1 sequence (Q06124 1-593): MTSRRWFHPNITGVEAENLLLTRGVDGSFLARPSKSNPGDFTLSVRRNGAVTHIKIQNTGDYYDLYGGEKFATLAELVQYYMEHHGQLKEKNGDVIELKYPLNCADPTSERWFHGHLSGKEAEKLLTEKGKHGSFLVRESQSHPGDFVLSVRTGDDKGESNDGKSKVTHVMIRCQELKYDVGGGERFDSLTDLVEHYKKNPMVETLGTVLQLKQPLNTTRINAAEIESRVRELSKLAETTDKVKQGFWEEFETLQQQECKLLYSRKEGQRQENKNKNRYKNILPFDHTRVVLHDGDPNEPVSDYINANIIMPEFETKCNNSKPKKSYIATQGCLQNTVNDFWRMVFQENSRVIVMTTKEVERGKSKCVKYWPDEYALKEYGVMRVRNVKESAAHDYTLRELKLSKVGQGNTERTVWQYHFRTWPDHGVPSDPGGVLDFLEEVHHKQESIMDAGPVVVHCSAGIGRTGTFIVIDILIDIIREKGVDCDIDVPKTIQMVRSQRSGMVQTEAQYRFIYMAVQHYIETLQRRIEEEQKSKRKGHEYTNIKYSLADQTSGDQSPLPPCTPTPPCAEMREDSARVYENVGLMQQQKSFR
Experimental: SHP2 is allosterically activated through binding of bis-tyro syiphorphorylated peptides to its Src Homology 2 (SH2) domains. The latter activation step leads to the release of the auto-inhibitory interface of SHP2, which in turn renders the SHP2 PTP active and available for substrate recognition and reaction catalysis. The catalytic activity of SHP2 was monitored using the surrogate substrate DiFMUP in a prompt fluorescence assay format. Specifically, the phosphatase reactions were performed at room temperature in 384-well black polystyrene plate, flat bottom, low flange, non-binding surface (Corning, Cat #3575) using a final reaction volume of 20 μL and the following assay buffer conditions: 60 mM HEPES, pH 7.2, 75 mM NaCl, 75 mM KCl, 1 mM EDTA, 0.01% Brij-35, 5 mM DTT, and 10% DMSO (final). The inhibition of SHP2 from the tested compounds (final concentrations varying from 0.003-100 μM) was monitored using an assay in which 0.5 nM of SHP2 (PTPN11/SHP2-FL, RBC produced, no cat #) was incubated with 0.35 μM of the peptide H2NLN(pY)IDLDLV(dPEG8)LST(pY)ASINFQK-amide. After 20 minutes of incubation at room temperature, the surrogate substrate DiFMUP (6,8-difluoro-7-hydroxy-4-methylcoumarin, Invitrogen, cat #D6567, 100 μM final concentration) was added to the reaction. The fluorescence signal was monitored using a microplate reader (Envision, Perkin-Elmer) using excitation and emission wavelengths of 355 nm and 460 nm, respectively. The inhibitor dose response curves were analyzed using normalized IC50 regression curve fitting with control based normalization.
The IC50 values of for Compounds disclosed are listed in Table 2, A: ≤10 nM; B: >10 nM and ≤100 nM; C: >100 nM and ≤1 uM; and D: >1 μM.

[2] = tested on: MiaPaCa-2 cells; test: MiaPaCa-2 Cell proliferation assay in 3D culture (CCK8); format: cell-based; conditions: Homo sapiens, MIA PaCa-2, 120 h; 3D spheroid culture, 5 days with compound, CCK8 readout
Procedure, shortened: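 Cells grown as spheroids (2500/well, ultra-low attachment, 10% FBS) for 24 h, then exposed 5 days to ten 3-fold compound dilutions at 0.1% DMSO. Viability by CCK8/WST-8, 1.5 h at 37 °C, absorbance 450 nm; IC50 from triplicates.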

Compound | IC50 [1] | IC50 [2]
CC1(CN)CCN(c2cnc(Sc3cccc(C(=O)NS(=O)(=O)c4cccnc4)c3Cl)c(N)n2)CC1 [Example 38, 3-((3-amino-5-(4-(aminomethyl)-4-methylpiperidin-1-yl)pyrazin-2-yl)thio)-2-chloro-N-(pyridin-3-ylsulfonyl)benzamide] | ≤ 0.01 µM | 0.5 to 5 µM
CC1(CN)CCN(c2cnc(Sc3cccc(C(=O)NS(=O)(=O)c4ccncc4)c3Cl)c(N)n2)CC1 [Example 39, 3-((3-amino-5-(4-(aminomethyl)-4-methylpiperidin-1-yl)pyrazin-2-yl)thio)-2-chloro-N-(pyridin-4-ylsulfonyl)benzamide] | 0.01 to 0.1 µM | 5 to 50 µM
CC1(CN)CCN(c2cnc(Sc3cccc(NC(=O)NS(C)(=O)=O)c3Cl)c(N)n2)CC1 [Example 40, N-((3-((3-amino-5-(4-(aminomethyl)-4-methylpiperidin-1-yl)pyrazin-2-yl)thio)-2-chlorophenyl)carbamoyl)methanesulfonamide] | ≤ 0.01 µM | ≤ 0.5 µM
CC1(CN)CCN(c2cnc(Sc3cccc(NC(=O)NS(=O)(=O)c4ccncc4)c3Cl)c(N)n2)CC1 [Example 41, N-((3-((3-amino-5-(4-(aminomethyl)-4-methylpiperidin-1-yl)pyrazin-2-yl)thio)-2-chlorophenyl)carbamoyl)pyridine-4-sulfonamide] | ≤ 0.01 µM | 5 to 50 µM
CC1(CN)CCN(c2cnc(Sc3cccc(NC(=O)NS(=O)(=O)C4CCCC4)c3Cl)c(N)n2)CC1 [Example 42, N-((3-((3-amino-5-(4-(aminomethyl)-4-methylpiperidin-1-yl)pyrazin-2-yl)thio)-2-chlorophenyl)carbamoyl)cyclopentanesulfonamide] | ≤ 0.01 µM | ≤ 0.5 µM
CC1(CN)CCN(c2cnc(Sc3cccc(NC(=O)NS(=O)(=O)C4CC4)c3Cl)c(N)n2)CC1 [Example 43, N-((3-((3-amino-5-(4-(aminomethyl)-4-methylpiperidin-1-yl)pyrazin-2-yl)thio)-2-chlorophenyl)carbamoyl)cyclopropanesulfonamide] | ≤ 0.01 µM | ≤ 0.5 µM
